# Tests used:
# [1] = test system: E-cadherin; assay: E-cadherin cleavage in staurosporine-treated (apoptotic) A431 cells (Western blot); type: cell-based, human
# Description: Cell Cultures and transfections. Cells were grown in Dulbecco's Modified Eagle Medium (DMEM) plus 10% fetal bovine serum, penicillin and streptomycin in 5% CO2 at 37° C. […] A431 cells were from American Type Culture Collection. […] A431D cells stably transfected with wild-type or GGG759-761AAA mutant E-cadherin were provided by Dr. A. B. Reynolds.
# (§1) Immunoprecipitations (IPs), immunoblotting, immunofluorescence and confocal microscopy. For WB analysis of cell extracts, cells were washed with PBS and then solubilized in RIPA buffer. For IPs cells were solubilized in Hepes buffer (25 mM Hepes [pH 7.4], 150 mM NaCl, 1× Complete protease inhibitor cocktail, Roche) containing 1% digitonin (IPs with I-R222 and PI-R222 antibodies) or 1% Triton X-100 (IPs with β-catenin and desmoglein antibodies). Following centrifugation at 17,000×g for 10 min, supernatants (1 mg protein) were pre-cleared with protein A- or protein G-agarose (Pierce) for 2 hours. Supernatants were then incubated with antibodies overnight at 4° C. and treated for 2 hours with protein A-agarose (polyclonal antibodies) or with protein G-agarose (monoclonal antibodies). IPs were washed with Hepes buffer containing either 1% digitonin or 1% Triton X-100 and analyzed by SDS-PAGE. Immunofluorescence and confocal microscopy was performed as described by Georgakopoulos et al., (1999). Briefly, cells were plated on 22×22 mm collagen-coated glass coverslips, fixed in cold methanol for 10 min at −20° C. Following washing in TBS (25 mM Tris-HCl [pH 7.4], 150 mM NaCl), cells were treated with 10% goat serum in SuperBlock (Pierce) for 1 hour, incubated overnight with primary antibody (1:100), washed in TBS and then were incubated with species specific Alexa Fluor™ secondary antibody conjugates (Molecular Probes). Cells were washed with TBS, mounted with Prolong antifade kit (Molecular Probes), and photographed on a Leica confocal laser scanning microscope.
# Conditional media (20 μl) from A431 cells cultured in the absence or presence of […] and treated with SDS as above were probed on Western blots with anti-E-cadherin ectodomain antibody H108.
# [2] = test system: N-cadherin; assay: N-cadherin processing in fibroblast cultures (Western blot, C32); type: cell-based, mouse; details: GM6001, FIG. 7B lanes 5 and 6
# Description: Extracts from PS1+/+ or PS1−/− mouse embryos were probed on WBs with either anti-cytoplasmic N-cadherin antibody (FIG. 7A, upper panel) or anti-PS I/CTF antibody 33B10 (FIG. 7A, lower panel). Extracts from PS1+/+ or PS1−/− fibroblast cultures were incubated for 16 hours in the absence or presence of DMSO, L-685,458 (0.5 μM) and probed on WBs with either C32 or 33B10 antibodies.
# [3] = test system: N-cadherin; assay: N-Cad/CTF2 production in rat primary neuronal cultures after stimulation; type: cell-based; set-up: N-Cad/CTF2 production on stimulation / K+-induced increase in N-Cad/CTF2 / L-glutamate-induced increase in N-Cad/CTF2: unit of the concentration uncertain; details: for N-Cad/CTF2 production on stimulation: 15 minutes stimulation with KCl (50 (unit uncertain)), L-Glutamate (50 (unit uncertain)) or NMDA (50 (unit uncertain))
# Description: Primary, neuronal cultures. Mixed hippocampal and cortical neuronal cultures were prepared from E18 mouse or rat brains as described by Banker and Goslin (1991) Culturing Nerves Cells, London, MIT Press. Neurons were maintained 10 days in vitro in glial conditioned MEM containing 2% glucose and N2 supplements as described by Bottenstein and Sato (1979) Proc. Natl. Acad. Sci. USA 76: 514-517, and then were stimulated for 15 minutes with Mg2+-free Hanks' balanced salt solution (HBSS, Sigma) containing KCl (50 mM), L-Glutamate ([…]) or NMDA ([…]). D-APV ([…]) was applied 15 minutes before stimulation.
# In vitro γ-secretase-like ε-cleavage assay. Cells were washed in PBS, resuspended in 1 ml of 4° C. hypotonic buffer (10 mM MOPS, pH 7.0, 10 mM KCl) and homogenized on ice. A post-nuclear supernatant was prepared by centrifugation at 1000×g for 15 minutes at 4° C. Crude membranes were isolated from the post-nuclear supernatant by centrifugation at 16,000×g for 40 minutes at 4° C. The membranes were then resuspended in […] of assay buffer (150 mM sodium citrate, pH 6.4, 1× Complete protease inhibitor cocktail), and incubated at 37° C. for 2 hours. Samples were either analyzed directly by WB or separated into pellet (P100) and supernatant (S100) fractions by ultracentrifugation for 1 hour at 100,000×g at 4° C. The S100 and P100 fractions were then analyzed by WB.
# Rat brain neurons were pre-incubated in the absence (−) or presence (+) of D-APV and then stimulated with either KCl, L-glutamate (L-gly) or NMDA. Membranes from these neurons were used in in vitro assays for production of N-Cad/CTF2.
# [4] = test system: E-cadherin/catenin cytoskeletal complex; assay: Ionomycin-induced CAJ disassembly in A431 cells, subcellular fractionation and Western blot; type: cell-based, human; details: ionomycin 10 μM, absence of inhibitor
# Description: Subcellular fractionation. Confluent A431 cells (one 100 mm dish) were rinsed and scraped with 4° C. phosphate-buffered saline (PBS). Cells were then placed into 1 ml of buffer A (20 mM Tris-HCl [pH 7.5], 0.25 M sucrose, 10 mM EGTA, 2 mM EDTA, 1× Complete protease inhibitor cocktail, Roche), passed through a 27 gauge needle 10 times, and the obtained cell lysate was centrifuged at 500×g for 10 min at 4° C. The supernatant was then centrifuged at 120,000×g for 45 min at 4° C. to separate the cytosolic and crude membrane fractions. The pellet (crude membrane fraction) was washed twice with buffer A and resuspended by sonication in […] of buffer A containing 1% Triton X-100. The suspension was incubated at 4° C. for 30 min and then centrifuged at 120,000×g for 45 min at 4° C. to separate the membrane and Triton X-100-insoluble fractions. The pellet (Triton X-100-insoluble fraction) was washed twice with buffer A and solubilized by sonication in RIPA buffer. […] of proteins from the different fraction were analyzed by SDS-PAGE.
# In stable cell-cell adhesion, the E-cadherin/β-catenin complex of the CAJ is anchored to the actin cytoskeleton via catenin and this association is manifested by the insolubility of the complex components in Triton X-100 (Baki et al., (2001)). Induction of apoptosis or calcium influx disrupts cadherin-mediated cell-cell adhesion by cleaving cadherin and disassembling the CAJ complexes. To determine whether the γ-secretase cleavage of E-cadherin is involved in the CAJ disassembly, calcium influx was induced with ionomycin (10 μM) in A431 cells preincubated for 30 minutes in the absence or presence of the γ-secretase inhibitor L-685,458. Cell extracts were fractionated, and analyzed on Western blots with antibodies against cytoplasmic E-cadherin C36 or β- and α-catenins. […] In addition, L-685,458 delayed the ionomycin-induced decrease of cytoskeletal β-catenin and α-catenin and inhibited their release to the soluble cytosol.
# [5] = test system: E-cadherin; assay: Ionomycin treatment of A431D cells transfected with WT or GGG759-761AAA mutant E-cadherin; type: cell-based; details: ionomycin 45 minutes
# Description: Cell Cultures and transfections. Cells were grown in Dulbecco's Modified Eagle Medium (DMEM) plus 10% fetal bovine serum, penicillin and streptomycin in 5% CO2 at 37° C. Fibroblast cell lines derived either from wild-type (WT) (PS1+/+) or PS1 knock-out (PS1−/−) mice were stably transfected with human E-cadherin as described by Baki et al., (2001). A431 cells were from American Type Culture Collection. Stable transfectants of PS1 cDNA in HEK293 cells were prepared as described by Georgakopoulos et al., (1999). A431D cells stably transfected with wild-type or GGG759-761AAA mutant E-cadherin were provided by Dr. A. B. Reynolds.
# A431D cells stably transfected with WT E-cadherin or with the E-cadherin mutant were incubated in the absence or presence of ionomycin for 45 minutes and RIPA extracts were probed on Western blots with C36 antibody. Cytosolic fractions were probed with antibodies against E-cadherin (C36), β-catenin or α-catenin. […] Furthermore, no soluble E-Cad/CTF2 was detected in mutant transfectants either in the presence or absence of ionomycin. Thus, PS1 binding to E-cadherin is required for the PS1/γ-secretase cleavage of E-cadherin and for the release of E-Cad/CTF2, β-catenin and α-catenin to the soluble cytosol.
# [6] = test system: A431 cells; assay: Laser scanning confocal microscopy of ionomycin-induced cell-cell dissociation; type: cell-based, human; details: ionomycin 45 minutes
# Description: as §1
# The PS1/γ-secretase role in the disassembly of CAJ was further examined using laser scanning confocal microscopy (LSCM). A431 cells were pre-incubated for 30 minutes in the absence or presence of L-685,458 and then treated for 45 minutes with ionomycin. Following the ionomycin-induced cell-cell dissociation, the distribution of PS1, E-cadherin, β-catenin and α-catenin was analyzed by LSCM using the constant detector setting. […]
# [7] = test system: Aβ40 and Aβ42; assay: Secreted Aβ ELISA in CHO cells expressing Swedish APP mutant; type: cell-based; details: transient transfection, vs vector cDNA, FIG. 4B
# Description: CHO cells expressing Swedish APP mutant were transiently transfected with vector cDNA (vector), full length E-cadherin (E-cadherin), a cDNA construct encoding the transmembrane and ectodomain sequence of E-cadherin (EC0) or a cDNA expressing the entire cytoplasmic sequence of E-cadherin (CTF2). Secreted Aβ40 and Aβ42 were determined by ELISA. Each value is a mean±SD from three assays each performed in duplicate. […] Expression of transfected proteins in swCHO cells was monitored by Western blotting.
compound,measurement,setting,value
CNC(=O)[C@H](Cc1c[nH]c2ccccc12)NC(=O)[C@@H](CC(=O)NO)CC(C)C [GM6001],production of the 38 kDa fragment (E-Cad/CTF1),"[1]; 30 minutes preincubation with GM6001 (2.5 μM), then STS 6 hours",inhibited
same,"secreted 95 kDa fragment (E-Cad/NTF1), effect of MMP inhibitor in STS-treated cells",[1]; antibody H108,inhibited
same,N-Cad/CTF1,[2],decreased
same,full length N-cadherin,[2],increased
[Cl-].[K+] [KCl],N-Cad/CTF2 production on stimulation,[3],stimulated
"N[C@@H](CCC(=O)O)C(=O)O [L-glutamate, L-Glutamate]",N-Cad/CTF2 production on stimulation,[3],induced an increase in N-Cad/CTF2
C[C@H](CCC(=O)O)C[C@H](C)C[C@H](C)C(=O)/C=C(\O)[C@H](C)C[C@H](C)C/C=C/[C@@H](C)[C@@H](O)[C@@H](C)[C@@H](O)C[C@@H]1CC[C@@](C)([C@H]2CC[C@@](C)([C@@H](C)O)O2)O1 [ionomycin],N-Cad/CTF2,[3]; treatment of rat primary neuronal cultures with ionomycin,increased N-Cad/CTF2
same,cytoskeletal (Triton X-100-insoluble) fraction of full-length E-cadherin and E-Cad/CTF1,[4],time-dependent decrease
same,cytoskeletal association (Triton X-100-insoluble fraction) of β-catenin and α-catenin,[4],decreased
same,soluble cytosolic E-Cad/CTF2,[4],corresponding increase
same,soluble cytosolic levels of β-catenin and α-catenin,[4],significant increase
same,"soluble E-Cad/CTF2, β-catenin and α-catenin in cytosolic fractions",[5]; cells expressing WT E-cadherin,significant increase
same,soluble β- or α-catenin in cytosolic fractions,[5]; cells expressing mutant E-cadherin GGG759-761AAA,no ionomycin-induced increase
same,cell-cell adhesion,[6],disrupted cell-cell adhesion
same,"plasma membrane staining of PS1, E-cadherin, β-catenin and α-catenin epitopes",[6],decreased plasma membrane staining of all epitopes
CTF-2: cDNA expressing the entire cytoplasmic sequence of E-cadherin,secreted Aβ40,[7],significantly inhibited
same,secreted Aβ42,[7],significantly inhibited
D(−)-2-amino-5-phosphonovalerate [D-APV],K+-induced increase in N-Cad/CTF2,[3]; D-APV (100 (unit uncertain)) applied 15 minutes before stimulation with KCl,inhibited
same,L-glutamate-induced increase in N-Cad/CTF2,[3]; D-APV (100 (unit uncertain)) applied 15 minutes before stimulation with L-glutamate,blocked
Z-DEVD-FMK,29 kDa fragment (E-Cad/CTT3),"[1]; 30 minutes preincubation with Z-DEVD-FMK (50 μM), then STS 6 hours",inhibited
